For experiment [1], the system named is A549 lung carcinoma cell. Briefly: MTT assay on A549 cells. Conditions: A549 cell, 24 h. The source says:
The anti-proliferative property of the complexes 1 and 2 at different concentrations on A549 lung carcinoma cell and monkey kidney epithelial cell Vero was examined by adopting MTT assay (Fig. S7). […] The naked cobalt acetate and ligands salen and salophen were separately tested on A549 cells to understand if metal chelation is the principal basis of the anticancer activity of the complexes.
Culture: Human lung cancer cells (A549) were received from National Centre for Cell Science (NCCS) Pune, India. Vero cells were obtained from ATCC. The cells were grown at humidified atmosphere of 5% CO2 in an incubator at 37 °C (Forma, Thermo Scientific, USA) in DMEM medium (Invitrogen) containing 10% FBS (Sigma-Aldrich, St. Louis, Mo, USA), 100 μg/mL of penicillin and 100 μg/mL streptomycin were used as antibiotics (Himedia, Mumbai, India). […] The cells were seeded in 96 well plates (5000 A549 cells per well) and allowed to attach for 24 h. The cells were then incubated with different concentrations of the metal complexes 1 and 2 dissolved in 100% dimethyl sulfoxide (DMSO) (Sigma-Aldrich) and prepared to a final dilution of 0.02% of DMSO.
In the determination of IC50 value, 0.02% DMSO was used as the solvent control. After the end of incubation period (24 h), the medium was aspirated carefully and replaced with new medium. The formazan formed was dissolved in100 μL of 100% DMSO to each well. The absorbance was monitored at 570 nm using a 96 well plate reader (Bio-Rad, Hercules, California, USA). All experiments were repeated for a minimum of three times when each experiment was done in two replicates.

The subject of experiment [2] is developing blood vessels of the chicken chorioallantoic membrane. Description: Chicken chorioallantoic membrane (CAM) assay. Conditions: for inhibition of vessel formation: 10 µM on filter paper discs, end of incubation (6 h); for angiogenic parameters (vessel size, vessel length, number of vessel branches): 10 µM, angioquant software, compared to control. Type of experiment: in vivo. As for the experimental part: Chicken chorioallantoic membrane (CAM) assay is a well-known in vivo angiogenesis assay. To confirm the anti-angiogenic properties of cobalt complexes 1 and 2, CAM assay was performed. The complexes 1 and 2, on incubation for […], produced excellent inhibitory activity on the developing blood vessels. […] Several angiogenic parameters such as vessel size, vessel length and number of vessel branches were quantified using angioquant software as practiced in an earlier study[77] and represented as bar diagram (Fig. 5). […] This trend is also in tune with the DNA binding ability and anti-cancer activity of the complexes 1 and 2.
The Institutional Animal Care and Use Committee, an Association of New England Medical Center and Tufts (IACUC) and the National Institute of Health, USA, had established that a chick embryo that has not reached the 14th day of its developmental period would not experience pain and can, therefore, be used for experimentation without any ethical restrictions or prior protocol approval[95]–[97]. The anti-angiogenic activity was investigated on adopting the Chicken chorioallantoic membrane (CAM) assay. Briefly, specific pathogen-free (SPF) fertile chicken eggs were obtained from a government poultry farm. The eggs were incubated at 37 °C in a humid atmosphere. On the 5th day of incubation, the shell was cautiously broken using forceps. Precautions were taken to prevent puncture of any of the blood vessels during the transfer. The stock solutions were prepared by dissolving the complexes 1 and 2 in DMSO and then diluted suitably with the corresponding buffer to the required concentrations for all the experiments. The final DMSO concentration never exceeded 0.1%. Sterile filter paper discs (6 mm dia) soaked in solution of complexes (10 µM) were placed in 3 different positions over the generating blood vessels. For the control experiments sterile filter paper disks (6 mm dia) soaked with 10 µM of 0.1% of DMSO in PBS were used. Images of blood vessels (i.e., 0 h) were taken using stereo microscope (Nexius Zoom). The eggs were aseptically transferred in a humidified incubator at 37 °C and images were captured after 6 h incubation.

Broadly, the IC50 is the concentration needed to halve the response being measured. The low end stands for greater potency, the high end for weaker potency.

Molecule `CCCCCCCCCCCC[NH2+][Co-3]123([NH2+]CCCCCCCCCCCC)[O]c4ccccc4C=[N+]1CC[N+]2=Cc1ccccc1[O]3.[O-][Cl+3]([O-])([O-])[O-]` [Complex 1, trans-[Co(salen)(DA)2](ClO4)] displayed an IC50 in experiment [1] of 80 µM. In experiment [2], the “inhibition of vessel formation” value was “profound inhibition of vessel formation” and the “angiogenic parameters (vessel size, vessel length, number of vessel branches)” value is reported as “reduction in all of these parameters compared to control”.

`CCCCCCCCCCCC[NH2+][Co-3]123([NH2+]CCCCCCCCCCCC)[O]c4ccccc4C=[N+]1c1ccccc1[N+]2=Cc1ccccc1[O]3.[O-][Cl+3]([O-])([O-])[O-]` [Complex 2, trans-[Co(salophen)(DA)2](ClO4)] gave an IC50 in experiment [1] of 65 µM. Also, in experiment [2], the “inhibition of vessel formation” value was “profound inhibition of vessel formation” and the “angiogenic parameters (vessel size, vessel length, number of vessel branches)” value is recorded as “reduction in all of these parameters compared to control”.

(Values after publication PMC6389928, “Biomolecular Interaction, Anti-Cancer and Anti-Angiogenic Properties of Cobalt(III) Schiff Base Complexes” (Scientific Reports, 2019).)
